The test system of this experiment is radiation-induced emesis. The experiment can be described thus: radiation-induced emesis in the ferret. The format is in vivo. To be noted: whole body irradiation 2 Grey, dose 0.3 mg/kg s.c. immediately after irradiation. The procedure:
In this model of emesis the onset of retching and vomiting occurs approximately 20 minutes after whole body irradiation (2 Grey.ident.200 Rads). The test compound is administered (e.g. i.p, p.o., i.v., s.c) immediately after irradiation and its effect on emesis determined by comparison with appropriate controls.

Where a name gives a salt, the structure may show the parent alone.

In the case of `Cc1nnnn1-c1cc(CN[C@H]2CCCN[C@H]2c2ccccc2)c2occc2c1` [Example 1, [5-(5-Methyl-tetrazol-1-yl)-benzofuran-7-ylmethyl]-(2S-phenyl-piperidin-3S-yl)-amine dihydrochloride], the “inhibition of radiation-induced emesis” value is given as “inhibited radiation-induced emesis”.

For the origin of these results see patent US5935972A, “Benzofuran derivatives as tachykinin antagonists” (Glaxo Group Limited, priority 1997, dated 1999).
